# Like-named read-outs stand apart in the source and are kept apart here.
# Assays:
# [1] = tested on: MRSA KS6; test: MIC, broth microdilution, MRSA KS6; format: cell-based, Staphylococcus aureus
# Outline: (§1)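 CLSI broth microdilution; water and uninoculated-broth controls; one arm supplemented with vancomycin, final 10 μM, given with analogue or control antibiotic.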
# [2] = tested on: S. aureus VSSA (ATCC 6538); test: MIC, broth microdilution, vancomycin-sensitive S. aureus (VSSA/MSSA, ATCC 6538); format: cell-based, Staphylococcus aureus
# Outline: as §1
# [3] = tested on: Clostridium difficile AIU ribotype 027; test: MIC, plate drop assay, C. difficile AIU ribotype 027; format: cell-based; settings: C. difficile AIU ribotype 027
# Outline: (§2)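 Lawns of each strain were made in soft BHI agar (0.4%) supplemented with CaCl2⋅2H2O and MgCl2⋅6H2O. Twofold compound dilutions (10 μL) were spotted, air-dried and incubated overnight at 37°C anaerobically; MIC read as cleared spots, in triplicate with water as negative control.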
# [4] = tested on: MRSA KS89; test: MIC, broth microdilution, MRSA KS89; format: cell-based, Staphylococcus aureus
# Outline: as §1
# [5] = tested on: MRSA KS1; test: MIC, broth microdilution, MRSA KS1; format: cell-based, Staphylococcus aureus
# Outline: as §1
# [6] = tested on: Clostridium difficile ATJ ribotype 014/20; test: MIC, plate drop assay, C. difficile ATJ ribotype 014/20; format: cell-based; settings: C. difficile ATJ ribotype 014/20
# Outline: as §2
# [7] = tested on: human cervix carcinoma (HeLa) cells; test: Cytostatic activity, HeLa cell proliferation; format: cell-based; settings: mean ± SD of three experiments; highest concentration tested 250 µM; 4 days; read-out: Toxicity (IC50) HeLa
# Outline: (§3)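 Coulter counter cell counts after 37°C culture with compound; IC50 = concentration giving 50% growth inhibition vs negative control. Incubation: L1210 2 d, CEM 3 d, HeLa 4 d. Suspension density before mixing with an equal volume of dilution: 300,000–500,000 cells/mL.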
# [8] = tested on: Murine leukemia (L1210) cells; test: Cytostatic activity, L1210 cell proliferation; format: cell-based; settings: mean ± SD of three experiments; highest concentration tested 250 µM; 2 days; read-out: Toxicity (IC50) L1210
# Outline: as §3
# [9] = tested on: E. coli XL-1 blue MRF'; test: MIC, broth microdilution, E. coli XL-1 blue MRF'; format: cell-based, Escherichia coli; settings: E. coli XL-1 blue MRF'
# Method: (§4) The minimum inhibitory concentration (MIC) was determined using the broth microdilution method according to the antimicrobial susceptibility testing standards of the clinical and laboratory standards institute ([Clinical and Laboratory Standards Institute [CLSI], 2012]). Ultrapure water and non-inoculated broth were used as controls. In one case, a final concentration of 10 μM vancomycin was included with the vancomycin analog or control antibiotic.
# [10] = tested on: L1210, CEM and HeLa cell lines; test: Cytostatic activity, average or summary over L1210, CEM and HeLa; format: cell-based
# Outline: as §3
# [11] = tested on: MRSA KS2; test: MIC, broth microdilution, MRSA KS2; format: cell-based, Staphylococcus aureus
# Outline: as §1
# [12] = tested on: E. faecalis VRE 37; test: MIC, broth microdilution, vancomycin-resistant E. faecalis VRE 37 (VanA); format: cell-based, Enterococcus faecalis; settings: Enterococcus faecalis VRE 37 (vancomycin-resistant); read-out: MIC
# Outline: as §1
# [13] = tested on: E. faecalis VRE 6; test: MIC, broth microdilution, vancomycin-resistant E. faecalis VRE 6 (VanA); format: cell-based, Enterococcus faecalis; settings: for MIC: read-out: MIC
# Outline: as §1
# [14] = tested on: B. subtilis PSB3; test: MIC, broth microdilution, B. subtilis PSB3; format: cell-based, Bacillus subtilis
# Method: as §4
# [15] = tested on: E. faecalis VRE 29; test: MIC, broth microdilution, vancomycin-resistant E. faecalis VRE 29 (VanA); format: cell-based, Enterococcus faecalis
# Outline: as §1
# [16] = tested on: E. faecalis VSE 1; test: MIC, broth microdilution, vancomycin-sensitive E. faecalis (VSE 1); format: cell-based, Enterococcus faecalis; settings: for MIC: read-out: MIC
# Outline: as §1
# [17] = tested on: S. aureus VISA/HIP5827; test: MIC, broth microdilution, vancomycin-intermediate S. aureus VISA HIP5827; format: cell-based, Staphylococcus aureus
# Outline: as §1
# [18] = tested on: human T-lymphocyte (CEM) cells; test: Cytostatic activity, CEM cell proliferation; format: cell-based; settings: mean ± SD of three experiments; highest concentration tested 250 µM; 3 days; read-out: Toxicity (IC50) CEM
# Outline: as §3
# [19] = tested on: S. aureus VRSA; test: MIC, broth microdilution, vancomycin-resistant S. aureus (VRSA); format: cell-based, Staphylococcus aureus
# Outline: as §1
# [20] = tested on: E. faecalis VRE 53; test: MIC, broth microdilution, vancomycin-resistant E. faecalis VRE 53 (VanA); format: cell-based, Enterococcus faecalis; settings: for MIC: read-out: MIC
# Outline: as §1
# [21] = ratio of MIC of vancomycin and MIC of analogue
smiles,measurement,setting,value
C#Cc1ccc(NC(=O)CNC(=O)C2NC(=O)C3NC(=O)C(NC(=O)C4NC(=O)C(CC(N)=O)NC(=O)C(NC(=O)C(CC(C)C)NC)C(O)c5ccc(c(Cl)c5)Oc5cc4cc(c5OC4OC(CO)C(O)C(O)C4OC4CC(C)(N)C(O)C(C)O4)Oc4ccc(cc4Cl)C3O)c3ccc(O)c(c3)-c3c(O)cc(O)cc32)cc1 (stereo not shown) [Vanc-N],MIC-fold improvement vs. vancomycin,"[1]; MRSA KS6, ratio of MIC of vancomycin and MIC of analogue",2
same,MIC,"[1]; Staphylococcus aureus MRSA KS6, read-out: MIC",0.39 µM
same,MIC,"[2]; Staphylococcus aureus VSSA, read-out: MIC",0.10 µM
same,MIC-fold improvement vs. vancomycin,"[2]; VSSA, ratio of MIC of vancomycin and MIC of analogue",8
same,MIC-fold improvement vs. vancomycin,[3],29
same,MIC-fold improvement vs. vancomycin,"[4]; MRSA KS8, ratio of MIC of vancomycin and MIC of analogue",2
same,MIC,"[4]; Staphylococcus aureus MRSA KS8, read-out: MIC",0.39 µM
same,MIC-fold improvement vs. vancomycin,"[5]; MRSA KS1, ratio of MIC of vancomycin and MIC of analogue",4
same,MIC,"[5]; Staphylococcus aureus MRSA KS1, read-out: MIC",0.20 µM
same,MIC-fold improvement vs. vancomycin,[6],5.6
same,IC50,[7],> 250 µM
same,IC50,[8],> 250 µM
same,MIC,[9],50 µM
same,MICvanc/MICi,[9]; [21],2
same,IC50,"[10]; average of L1210, CEM and HeLa, read-out: Toxicity (IC50) Average",> 250 µM
same,IC50,"[10]; summary over the three cell lines, read-out: IC50 (L1210, CEM, HeLa), depending on the cell line used",> 250 µM
same,MIC-fold improvement vs. vancomycin,"[11]; MRSA KS2, ratio of MIC of vancomycin and MIC of analogue",2
same,MIC,"[11]; Staphylococcus aureus MRSA KS2, read-out: MIC",0.39 µM
same,MIC,[12],25 µM
same,MICvanc/MICi,"[13]; E. faecalis VRE 6, ratio of MIC of vancomycin and MIC of analogue",64
same,MIC,[13]; E. faecalis VRE 6,3.13 µM
same,MIC,[13]; Enterococcus faecalis VRE 6 (vancomycin-resistant),3.13 µM
same,MIC-fold improvement vs. vancomycin,"[13]; VRE 6, ratio of MIC of vancomycin and MIC of analogue",64
same,MIC,[14],0.20 µM
same,MICvanc/MICi,[14]; [21],2
same,MIC,"[15]; Enterococcus faecalis VRE 29 (vancomycin-resistant), read-out: MIC",6.25 µM
same,MIC-fold improvement vs. vancomycin,"[15]; VRE 29, ratio of MIC of vancomycin and MIC of analogue",64
same,MICvanc/MICi,"[16]; E. faecalis VSE 1, ratio of MIC of vancomycin and MIC of analogue",16
same,MIC,[16]; E. faecalis VSE 1,0.10 µM
same,MIC,[16]; Enterococcus faecalis VSE 1 (vancomycin-sensitive),0.10 µM
same,MIC-fold improvement vs. vancomycin,"[16]; VSE 1, ratio of MIC of vancomycin and MIC of analogue",16
same,MIC,"[17]; Staphylococcus aureus VISA/HIP5827, read-out: MIC",0.78 µM
same,MIC-fold improvement vs. vancomycin,"[17]; VISA/HIP5827, ratio of MIC of vancomycin and MIC of analogue",8
same,IC50,[18],> 250 µM
same,MIC,"[19]; Staphylococcus aureus VRSA, read-out: MIC",1.56 µM
same,MIC-fold improvement vs. vancomycin,"[19]; VRSA, ratio of MIC of vancomycin and MIC of analogue",64
same,MICvanc/MICi,"[20]; E. faecalis VRE 53, ratio of MIC of vancomycin and MIC of analogue",64
same,MIC,[20]; E. faecalis VRE 53,6.25 µM
same,MIC,[20]; Enterococcus faecalis VRE 53 (vancomycin-resistant),6.25 µM
same,MIC-fold improvement vs. vancomycin,"[20]; VRE 53, ratio of MIC of vancomycin and MIC of analogue",64

# Reference: paper PMC6001238, “Iterative Chemical Engineering of Vancomycin Leads to Novel Vancomycin Analogs With a High in Vitro Therapeutic Index” (Frontiers in Microbiology, 2018)
